≈ marks a conversion by molar mass, not a printed value.
Key:
MRSA Pyk = molecular target: T1, MRSA Pyk (Staphylococcus aureus, UniProt Q6GG09); experiment: MRSA pyruvate kinase (PK) activity, continuous LDH-coupled assay; type: biochemical, methicillin resistant S. aureus (MRSA252)
T1 construct: made in house; host or cells: E. coli BL-21 (DE3)
Description: Genomic DNA of MRSA strain Sanger 252 extracted using DNeasy Tissue Kit™ (Qiagen™) was used as a template to generate the His-tagged MRSA PK. Human cDNA from MCF-7 breast cancer cell line (courtesy of Dr. J Wong, BC Cancer Research Center (Vancouver, Canada)) was used as a template to generate the full-length human M2 PK enzyme. The following primer sets were used creating appropriate restriction sites (NdeI and XhoI sites underlined): For cloning of MRSA PK: M27F 5′-[…]-3′ and M27R 5′-[…]-3′, for cloning of human M2 PK isoform: hM2F 5′-[…]-3′ and hM2R 5′-[…]-3′. The resulting PCR fragments for each construct were cloned into the NdeI and XhoI unique sites of the bacterial expression vector pET-28a (+) (Novagen™). […] The sequence and the correct reading frame of all constructs were verified by sequencing. Human M1, R and L PK constructs in pET-28-a(+) vectors (courtesy of Dr. L. Cantley, Harvard Medical, School (Boston, USA)) were used to generate relevant recombinant His-tagged human PK isoforms.
MRSA and human constructs in pET-28a(+) were used to express relevant recombinant PK proteins in E. coli BL-21 (DE3). The proteins were expressed and purified using Ni-NTA agarose (Qiagen™) according to the manufacturer's protocol. Briefly, cells were grown to an absorbance of 0.4-0.5 at 600 nm in 2×YT medium, then induced with 0.1 mM IPTG for 3 h at 20° C. Cells were lysed by sonication on ice (3×10-s bursts with a 30-s recovery between bursts) in lysis buffer (0.2 mg/ml lysozyme, 50 mM Tris pH 7.5, 10 mM MgCl2, 200 mM NaCl, 100 mM KCl, 10% glycerol, 10 mM imidazole, 0.5% NP-40 and 1 mM DTT containing Complete™ protease inhibitor). Cell lysates were cleared by centrifugation (18,000×g in a Beckman™ JA-20 rotor) for 20 min at 4° C. and PK isoforms were purified by batch binding to Ni-NTA resin. The resins were then packed in columns (1×2 cm) and washed with 400 column volumes lysis buffer containing 30 mM imidazole. His-tagged PK isoforms were eluted with the same buffer containing 300 mM imidazole. The proteins were dialyzed overnight at 4° C. against 2000 volumes of ice-cold 30 mM Tris pH 7.5, 25 mM KCl, 5 mM MgCl2, 10% glycerol and 1 mM DTT to remove imidazole. All purification steps were done at 4° C.; enzymes were flash-frozen and stored at −70° C. Enzymatic activity of frozen protein preparations was stable for at least 10 months and up to 5 freeze/thaw cycles. Purity and physical integrity of proteins were assessed using SDS-polyacrylamide gel electrophoresis (SDS-PAGE) followed by coomassie blue staining. Protein concentration was estimated by Bradford assay (Bio-Rad Protein Assay™) using bovine serum albumin as a standard.
Candidate MRSA PK inhibitors were assayed for their ability to inhibit enzymatic activities of MRSA and human PKs. PK activity was determined using a continuous assay coupled to lactate dehydrogenase (LDH) in which the change in absorbance at 340 nm owing to oxidation of NADH was measured using a Benchmark Plus™ microplate spectrophotometer (Bio-Rad Laboratories, Hercules, Calif.). […] Reactions were initiated by the addition of 15 nM of one of the PK enzymes. PK activity proportional to the rate of change at 340 nm was expressed as specific activity (μmol/min/mg), which is defined as the amount of PK that catalyzes the formation of one micromole of either product per minute. Inhibitors were dissolved in DMSO with the final concentration of the solvent never exceeding 1% of the assay volume. IC50 values were calculated by curve fitting on a four-parameter dose-response model with variable slope using Graphpad Prism 5.0™ (GraphPad™ Software Inc., La Jolla, Calif.). In all studies, less than 10% of total PEP was exhausted during the reaction. Reactions were performed at 30° C. for up to 5 min. All values determined represent at least two measurements, in triplicate (Tables 1-6) or duplicate unless mentioned otherwise. […]

S. aureus (ATCC29213) = experiment: In vitro susceptibility, broth microdilution (MIC); type: cell-based; details: Staphylococcus aureus; S. aureus ATCC29213; 18-24 h, 37 C; read-out: Antimicrobial activity (MIC) S. aureus ATCC29213
Description: Epidemic methicillin resistant S. aureus (MRSA) strain sequenced at the Sanger Centre (MRSA252, NRS71) was obtained from NARSA (Network on Antimicrobial Resistance in S. aureus). Methicillin sensitive S. aureus (ATCC 29213 and 25923), methicillin resistant S. aureus (ATCC BAA-1762), and Salmonella typhimurium (ATCC BAA-185) were obtained from ATCC, The Global Bioresource Center. Acinetobacter baumannii (ATCC 19606 and ATCC 17978), Klebsiella pneumonia (C238), vancomycin resistant Enterococci #2 (2010A) (VRE#2), MRSA (USA400, MW2) and Pseudomonas aeruginosa (PA0-1) were obtained from the laboratory of Dr B. B. Finlay at the University of British Columbia (Vancouver, Canada).
The antimicrobial activities of PK inhibitor candidates were determined using the 96-well microtiter standard 2-fold serial broth microdilution method as described by CLSI (formerly NCCLS) with the various gram-positive and gram-negative bacteria species mentioned above. Bacteria from a single colony were grown, overnight in either BHI Broth (VRE), mueller hinton broth (S. aureus 29213; MRSA USA400, A. baumannii 19606, MRSA BAA-1762) or L-broth (P. aeruginosa, S. typhimurium, K. pneumonia and A. baumannii 17978). […] Culture plates were incubated for 18-24 h at 37° C., and optical density at 600 nm (OD600) was measured using a Benchmark Plus™ microplate spectrophotometer (Bio-Rad™). The absorbance control values for the series containing CAMHB and inhibitor were subtracted as background from the corresponding infected wells. Minimal inhibitory concentration (MIC) was defined as the lowest concentration of test compound leading to complete inhibition of cell growth in relation to compound-free control wells as determined by optical density. Vancomycin, methicillin and ciprofloxicin were used as reference compounds. All assays were run in triplicate or duplicate. Experiments were replicated at least twice to verify reproducibility using the above conditions.

T1 sequence (Q6GG09 whole entry): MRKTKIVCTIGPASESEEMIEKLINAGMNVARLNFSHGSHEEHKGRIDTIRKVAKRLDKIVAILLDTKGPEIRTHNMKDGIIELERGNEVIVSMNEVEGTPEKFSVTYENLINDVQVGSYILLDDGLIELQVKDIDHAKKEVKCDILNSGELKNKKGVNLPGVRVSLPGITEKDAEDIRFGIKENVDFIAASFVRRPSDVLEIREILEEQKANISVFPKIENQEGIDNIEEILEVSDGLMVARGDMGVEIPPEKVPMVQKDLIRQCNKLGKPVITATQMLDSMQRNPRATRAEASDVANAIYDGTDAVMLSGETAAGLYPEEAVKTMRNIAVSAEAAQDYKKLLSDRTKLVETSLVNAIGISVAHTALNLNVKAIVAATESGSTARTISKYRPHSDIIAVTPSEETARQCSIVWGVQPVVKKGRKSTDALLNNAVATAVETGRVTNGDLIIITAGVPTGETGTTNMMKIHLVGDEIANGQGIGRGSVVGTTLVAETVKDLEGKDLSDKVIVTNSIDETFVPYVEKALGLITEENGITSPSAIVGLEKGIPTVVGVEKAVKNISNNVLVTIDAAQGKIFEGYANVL

O=C(O)CNC(=O)c1c(/C=C/c2ccc(Cl)cc2)[nH]c2cc(Br)ccc12 [Compound 38, (E)-2-(6-Bromo-2-(4-chlorostyryl)-1H-indole-3-carboxamido)acetic Acid]
IC50 (MRSA Pyk): < 100 nM | MIC (S. aureus (ATCC29213)): > 64 µg/mL

CN(C)CCNC(=O)c1c(/C=C/c2cc(Cl)cc(Cl)c2)[nH]c2cc(Br)ccc12 [Compound 34, (E)-6-Bromo-2-(3,5-dichlorostyryl)-N-(2-(dimethylamino)ethyl)-1H-indole-3-carboxamide]
IC50 (MRSA Pyk): > 1000 nM | MIC (S. aureus (ATCC29213)): 16 µg/mL (≈ 33.2 µM)

CN(C)C(=O)c1c(/C=C/c2ccc(Cl)cc2)[nH]c2cc(Br)ccc12 [Compound 21, (E)-6-Bromo-2-(4-chlorostyryl)-N,N-dimethyl-1H-indole-3-carboxamide]
IC50 (MRSA Pyk): < 100 nM | MIC (S. aureus (ATCC29213)): > 64 µg/mL

O=C(O)C(=O)c1c(/C=C/c2ccc(Cl)cc2)[nH]c2cc(Br)ccc12 [Compound 85, (E)-2-(6-bromo-2-(4-chlorostyryl)-1H-indol-3-yl)-2-oxoacetic Acid]
IC50 (MRSA Pyk): 100 to 1000 nM | MIC (S. aureus (ATCC29213)): > 64 µg/mL

O=C(NCCC1CCOCC1)c1c(/C=C/c2ccc(Cl)cc2)[nH]c2cc(Br)ccc12 [Compound 42, (E)-6-Bromo-2-(4-chlorostyryl)-N-(2-(tetrahydro-2H-pyran-4-yl)ethyl)-1H-indole-3-carboxamide]
IC50 (MRSA Pyk): 100 to 1000 nM | MIC (S. aureus (ATCC29213)): > 64 µg/mL

OC(c1c(CCc2ccc(Cl)cc2)[nH]c2cc(Br)ccc12)(C(F)(F)F)C(F)(F)F [Compound 14, 2-(6-Bromo-2-(4-chlorophenethyl)-1H-indol-3-yl)-1,1,1,3,3,3-hexafluoropropan-2-ol]
IC50 (MRSA Pyk): 100 to 1000 nM | MIC (S. aureus (ATCC29213)): 1 µg/mL (≈ 2 µM)

O=C(NCCN1CCN[C@H](C(=O)O)C1)c1c(-c2cc3cc(Cl)ccc3[nH]2)[nH]c2cc(Br)ccc12 [Compound 229, (S)-4-(2-(6-bromo-5′-chloro-1H,1′H-[2,2′-biindole]-3-carboxamido)ethyl)piperazine-2-carboxylic Acid]
IC50 (MRSA Pyk): < 100 nM | MIC (S. aureus (ATCC29213)): > 64 µg/mL

OC(c1c(/C=C/c2ccc(Cl)cc2)[nH]c2cc(Br)ccc12)(C(F)(F)F)C(F)(F)F [Compound 13, (E)-2-(6-Bromo-2-(4-chlorostyryl)-1H-indol-3-yl)-1,1,1,3,3,3-hexafluoropropan-2-ol]
IC50 (MRSA Pyk): 100 to 1000 nM | MIC (S. aureus (ATCC29213)): 1 µg/mL (≈ 2.01 µM)

O=C(c1c(/C=C/c2ccc(Cl)cc2)[nH]c2cc(Br)ccc12)C1CCOCC1 [Compound 1, (E)-(6-Bromo-2-(4-chlorostyryl)-1H-indol-3-yl)(tetrahydro-2H-pyran-4-yl)methanone]
IC50 (MRSA Pyk): < 100 nM | MIC (S. aureus (ATCC29213)): > 64 µg/mL

O=C(c1ccccc1)c1c(/C=C/c2ccc(Cl)cc2)[nH]c2cc(Br)ccc12 [Compound 3, (E)-(6-Bromo-2-(4-chlorostyryl)-1H-indol-3-yl)(phenyl)methanone]
IC50 (MRSA Pyk): < 100 nM | MIC (S. aureus (ATCC29213)): 16 µg/mL (≈ 36.6 µM)

CN(C)CCC(=O)c1c(/C=C/c2cn3ccccc3n2)[nH]c2cc(Br)ccc12 [Compound 9, (E)-1-(6-Bromo-2-(2-(imidazo[1,2-a]pyridin-2-yl)vinyl)-1H-indol-3-yl)-3-(dimethylamino)propan-1-one]
IC50 (MRSA Pyk): 100 to 1000 nM | MIC (S. aureus (ATCC29213)): 32 µg/mL (≈ 73.2 µM)

O=C(NC(CO)CO)c1c(/C=C/c2ccc(Cl)cc2)[nH]c2cc(Br)ccc12 [Compound 32, (E)-6-Bromo-2-(4-chlorostyryl)-N-(1,3-dihydroxypropan-2-yl)-1H-indole-3-carboxamide]
IC50 (MRSA Pyk): < 100 nM | MIC (S. aureus (ATCC29213)): > 64 µg/mL

CN(C)C(=O)c1c(CCc2ccc(Cl)cc2)[nH]c2ccccc12 [Compound 51, 2-(4-Chlorophenethyl)-N,N-dimethyl-1H-indole-3-carboxamide]
IC50 (MRSA Pyk): > 1000 nM | MIC (S. aureus (ATCC29213)): > 64 µg/mL

O=C(c1c(/C=C/c2ccc(Cl)cc2)[nH]c2cc(Br)ccc12)C1CC1 [Compound 2, (E)-(6-Bromo-2-(4-chlorostyryl)-1H-indol-3-yl)(cyclopropyl)methanone]
IC50 (MRSA Pyk): < 100 nM | MIC (S. aureus (ATCC29213)): 2 µg/mL (≈ 4.99 µM)

ON=C(c1c(CCc2ccc(Cl)cc2)[nH]c2cc(Br)ccc12)C(F)(F)F (racemic) [Compound 46, 1-(6-Bromo-2-(4-chlorophenethyl)-1H-indol-3-yl)-2,2,2-trifluoroethanone Oxime]
IC50 (MRSA Pyk): > 1000 nM | MIC (S. aureus (ATCC29213)): 1 µg/mL (≈ 2.24 µM)

CN(C)C(=O)c1cc(Br)cc2[nH]c(/C=C/c3ccc(Cl)cc3)cc12 [Compound 64, (E)-6-Bromo-2-(4-chlorostyryl)-N,N-dimethyl-1H-indole-4-carboxamide]
IC50 (MRSA Pyk): < 100 nM | MIC (S. aureus (ATCC29213)): > 64 µg/mL

OC(c1c(/C=C/c2ccc(Cl)cc2)[nH]c2cc(Br)ccc12)C(F)(F)F (centres unmarked) [Compound 16, (E)-1-(6-Bromo-2-(4-chlorostyryl)-1H-indol-3-yl)-2,2,2-trifluoroethanol]
IC50 (MRSA Pyk): < 100 nM | MIC (S. aureus (ATCC29213)): 1 µg/mL (≈ 2.32 µM)

CC(C)(C)OC(=O)N1CCN(CCNC(=O)c2c(C(=O)Nc3ccc(Cl)cc3)[nH]c3cc(Br)ccc23)CC1 [Compound 78, tert-Butyl 4-(2-(6-bromo-2-((4-chlorophenyl)carbamoyl)-1H-indole-3-carboxamido)ethyl)piperazine-1-carboxylate]
IC50 (MRSA Pyk): < 100 nM | MIC (S. aureus (ATCC29213)): > 64 µg/mL

O=C(c1c(-c2cc3ccccc3[nH]2)[nH]c2cc(Br)ccc12)N1CCOCC1 [Compound 76, (6-Bromo-1H,1′H-[2,2′-biindol]-3-yl)(morpholino)methanone]
IC50 (MRSA Pyk): > 1000 nM | MIC (S. aureus (ATCC29213)): > 64 µg/mL

N#Cc1c(/C=C/c2ccc(Cl)cc2)[nH]c2cc(Br)ccc12 [Compound 67, (E)-6-Bromo-2-(4-chlorostyryl)-1H-indole-3-carbonitrile]
IC50 (MRSA Pyk): > 1000 nM | MIC (S. aureus (ATCC29213)): > 64 µg/mL

COc1ccc(/C=C/c2[nH]c3cc(Br)ccc3c2C(=O)NCCO)nc1 [Compound 35, (E)-6-Bromo-N-(2-hydroxyethyl)-2-(2-(5-methoxypyridin-2-yl)vinyl)-1 H-indole-3-carboxamide]
IC50 (MRSA Pyk): 100 to 1000 nM | MIC (S. aureus (ATCC29213)): > 64 µg/mL

CN(C)CCNC(=O)c1c(C(=O)Nc2ccc(Cl)cc2)[nH]c2cc(Br)ccc12 [Compound 81, 6-Bromo-N2-(4-chlorophenyl)-N3-(2-(dimethylamino)ethyl)-1H-indole-2,3-dicarboxamide]
IC50 (MRSA Pyk): < 100 nM | MIC (S. aureus (ATCC29213)): > 64 µg/mL

Source: patent US20180312493A1, “Antibiotic Compounds, Pharmaceutical Formulations Thereof And Methods And Uses Therefor” (Simon Fraser University, priority 2015, published 2018)
